Data from patent publication US12084411B2, “Hinokitiol analogues, methods of preparing and pharmaceutical compositions thereof” (The Board of Trustees of the University of Illinois, priority 2018, dated 2024).
Marks after values point to notes of the source that are not given here.

Experiments:
[1] = Iron (II) binding affinity, ferrozine competition assay
Experimental: (§1) Specifically, the association constant for iron (II) was determined by a ferrozine competition assay (KA of ferrozine=3.65×10^15) (60). FeCl2 (25 μM) was pre-mixed with ferrozine (75 μM) in a 25 mM MES/Tris buffer at pH=7.0 containing 62.5 mM sodium ascorbate. Then increasing concentrations of small molecule (from 40X stocks in DMSO) were added to the indicated final concentrations. The solutions were allowed to equilibrate for 24 hours before reading of the absorbance at 562 nm. […] The system was allowed to equilibrate overnight, and the absorbance corresponding to the Fe(chelator)3 complex was determined. The EC50 values for each chelator were calculated by a nonlinear curve fit (Hill1) on OriginPro by plotting the absorbance vs. concentration of titrant, and the KA for each complex was determined from the equation: KA, ligand=(KA, competitor*[EC50])/[ligand] where the ligand is the molecule originally bound to iron, and the competitor is the competing chelator.

[2] = Iron (III) binding affinity, EDTA or citrate competition assay; settings: for KA for iron (III): EDTA competition (citrate for maltol), pH 7.0
Experimental: as §1

Structure (SMILES): CC(C)c1cccc(=O)c(O)c1 [hinokitiol]
- KA for iron (II) ([1]; pH 7.0): 5.1×10^15
- KA for iron (II) ([1]; pH 7.0, listed as Hinokitiol): 5.1 × 10^15
- KA for iron (III) [2]: 5.8×10^25
- KA for iron (III) ([2]; listed as Hinokitiol): 5.8 × 10^25
- pFe^III ([2]; estimated from known pFe of EDTA (citrate for maltol)): 23.7^†
